# According to ChEMBL document CHEMBL1131644, “1-Methoxy-agroclavine from Penicillium sp. WC75209, a novel inhibitor of the Lck tyrosine kinase” (Bioorg Med Chem Lett, 1998):
# Active and inactive are the calls of the source. No cut-off for these calls is given here.
# How the values were obtained:
# [1] = target: T1, Tyrosine-protein kinase Lck (Homo sapiens, UniProt P06239); test: Inhibition of p56 lck autophosphorylation, gamma-[33P]ATP incorporation (Inactive)
# Target sequence in this assay (P06239 whole entry): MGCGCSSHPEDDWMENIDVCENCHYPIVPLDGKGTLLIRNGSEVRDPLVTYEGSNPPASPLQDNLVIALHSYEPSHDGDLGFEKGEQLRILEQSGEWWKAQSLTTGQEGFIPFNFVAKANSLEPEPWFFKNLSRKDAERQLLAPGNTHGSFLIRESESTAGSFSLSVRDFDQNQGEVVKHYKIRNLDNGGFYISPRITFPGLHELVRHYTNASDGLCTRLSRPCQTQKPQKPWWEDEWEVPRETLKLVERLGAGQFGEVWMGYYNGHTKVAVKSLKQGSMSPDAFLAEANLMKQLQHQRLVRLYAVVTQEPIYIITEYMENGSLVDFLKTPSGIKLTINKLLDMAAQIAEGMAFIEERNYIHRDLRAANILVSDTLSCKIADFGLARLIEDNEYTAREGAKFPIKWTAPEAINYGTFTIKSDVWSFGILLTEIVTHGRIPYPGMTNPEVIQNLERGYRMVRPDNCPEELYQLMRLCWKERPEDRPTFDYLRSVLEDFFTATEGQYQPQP
# [2] = target: T2, Tyrosine-protein kinase SYK (Homo sapiens, UniProt P43405); test: Inhibition of p72 syk autophosphorylation (Inactive)
# [3] = target: T3, Tyrosine-protein kinase Blk (Homo sapiens, UniProt P51451); test: (§1) Inhibition of p74 Blk tyrosine kinase autophosphorylation (Inactive)
# Target sequence in this assay (P51451 whole entry): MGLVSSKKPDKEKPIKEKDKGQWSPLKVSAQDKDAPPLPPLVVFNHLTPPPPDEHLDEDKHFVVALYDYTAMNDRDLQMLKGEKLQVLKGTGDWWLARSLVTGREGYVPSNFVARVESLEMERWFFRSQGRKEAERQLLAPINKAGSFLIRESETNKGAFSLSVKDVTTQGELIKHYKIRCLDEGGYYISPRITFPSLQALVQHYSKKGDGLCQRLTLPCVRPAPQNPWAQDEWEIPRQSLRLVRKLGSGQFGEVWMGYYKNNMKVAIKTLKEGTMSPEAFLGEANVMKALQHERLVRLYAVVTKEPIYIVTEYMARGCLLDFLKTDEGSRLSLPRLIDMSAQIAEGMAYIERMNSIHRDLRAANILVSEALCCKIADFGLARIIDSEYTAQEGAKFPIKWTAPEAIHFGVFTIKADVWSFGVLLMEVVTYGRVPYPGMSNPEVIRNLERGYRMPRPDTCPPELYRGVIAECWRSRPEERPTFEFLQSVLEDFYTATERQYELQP
# [4] = target: T4, CaM kinase II (Homo sapiens) (UniProt Q13557+Q13555+Q13554+Q9UQM7); test: (§2) Inhibition of [Ca(2+)]/Calmodulin-dependent Type II protein kinase at 10 uM; type: protein assay
# [5] = target: Tyrosine-protein kinase Fyn (Homo sapiens) (UniProt P06241); test: Inhibition of Fyn protein kinase at 10 uM
# [6] = target: Receptor tyrosine-protein kinase erbB-2 (Homo sapiens) (UniProt P04626); test: Inhibition of Her2, ErbB2 receptor tyrosine kinase at 10 uM
# Chain of Receptor tyrosine-protein kinase erbB-2 (Homo sapiens) (P04626 whole entry): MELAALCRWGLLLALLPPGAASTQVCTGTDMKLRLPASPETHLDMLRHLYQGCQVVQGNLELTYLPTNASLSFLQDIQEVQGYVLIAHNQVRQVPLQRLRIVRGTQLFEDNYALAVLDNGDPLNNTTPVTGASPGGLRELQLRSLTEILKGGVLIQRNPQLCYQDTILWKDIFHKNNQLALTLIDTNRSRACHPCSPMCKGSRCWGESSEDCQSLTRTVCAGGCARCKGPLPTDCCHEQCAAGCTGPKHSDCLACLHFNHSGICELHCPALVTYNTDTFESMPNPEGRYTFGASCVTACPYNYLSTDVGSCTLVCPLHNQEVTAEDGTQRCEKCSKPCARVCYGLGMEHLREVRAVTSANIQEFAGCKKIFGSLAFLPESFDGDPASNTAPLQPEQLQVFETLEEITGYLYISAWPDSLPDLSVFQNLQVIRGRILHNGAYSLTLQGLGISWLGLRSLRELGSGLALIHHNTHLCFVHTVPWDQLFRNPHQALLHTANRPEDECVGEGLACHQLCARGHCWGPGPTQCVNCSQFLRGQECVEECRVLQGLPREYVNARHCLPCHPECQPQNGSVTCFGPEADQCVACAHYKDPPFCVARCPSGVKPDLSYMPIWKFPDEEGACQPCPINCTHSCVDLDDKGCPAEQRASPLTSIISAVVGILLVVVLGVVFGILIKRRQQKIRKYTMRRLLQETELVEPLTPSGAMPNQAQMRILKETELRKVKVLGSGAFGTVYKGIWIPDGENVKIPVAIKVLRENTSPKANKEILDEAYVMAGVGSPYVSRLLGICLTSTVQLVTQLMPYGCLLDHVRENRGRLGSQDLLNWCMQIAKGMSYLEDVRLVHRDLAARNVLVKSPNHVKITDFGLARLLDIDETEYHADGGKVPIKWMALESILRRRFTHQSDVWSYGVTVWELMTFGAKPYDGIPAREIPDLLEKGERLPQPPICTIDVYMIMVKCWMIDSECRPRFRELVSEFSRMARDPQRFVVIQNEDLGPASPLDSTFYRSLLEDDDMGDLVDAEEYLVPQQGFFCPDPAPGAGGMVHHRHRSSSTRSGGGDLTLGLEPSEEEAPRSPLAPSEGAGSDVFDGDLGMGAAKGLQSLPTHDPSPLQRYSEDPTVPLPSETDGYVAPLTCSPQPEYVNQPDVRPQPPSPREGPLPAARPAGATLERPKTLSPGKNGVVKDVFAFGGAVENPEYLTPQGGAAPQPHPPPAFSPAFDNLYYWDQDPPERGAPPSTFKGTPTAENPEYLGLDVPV
# [7] = target: T1, Tyrosine-protein kinase Lck; test: Inhibition of Lck protein kinase at 10 uM
# Target sequence in this assay (P06239 2-509 limits assumed): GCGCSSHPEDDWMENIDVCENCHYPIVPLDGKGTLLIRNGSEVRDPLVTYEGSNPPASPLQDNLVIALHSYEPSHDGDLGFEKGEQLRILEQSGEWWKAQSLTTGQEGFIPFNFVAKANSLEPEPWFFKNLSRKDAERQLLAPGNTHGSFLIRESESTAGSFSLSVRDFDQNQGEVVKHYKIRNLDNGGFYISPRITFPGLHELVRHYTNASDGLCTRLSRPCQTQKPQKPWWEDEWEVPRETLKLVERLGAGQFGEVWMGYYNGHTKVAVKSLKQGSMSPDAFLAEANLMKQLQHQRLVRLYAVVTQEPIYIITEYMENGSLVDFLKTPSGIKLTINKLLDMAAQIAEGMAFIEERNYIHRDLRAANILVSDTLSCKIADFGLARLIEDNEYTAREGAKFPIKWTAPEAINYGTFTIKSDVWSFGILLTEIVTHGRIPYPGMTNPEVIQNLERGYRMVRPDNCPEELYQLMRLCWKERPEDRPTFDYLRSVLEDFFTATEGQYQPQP
# [8] = test system: M109; test: Cytotoxic effect on M109 mouse lung carcinoma cells at 40 uM (No effect); type: functional, cell-based
# [9] = target: Protein kinase C beta type (Homo sapiens) (UniProt P05771); test: Inhibition of Protein Kinase C beta at 10 uM Histone H1 substrate (Inactive)
# Chain of Protein kinase C beta type (Homo sapiens) (P05771 2-671 limits assumed): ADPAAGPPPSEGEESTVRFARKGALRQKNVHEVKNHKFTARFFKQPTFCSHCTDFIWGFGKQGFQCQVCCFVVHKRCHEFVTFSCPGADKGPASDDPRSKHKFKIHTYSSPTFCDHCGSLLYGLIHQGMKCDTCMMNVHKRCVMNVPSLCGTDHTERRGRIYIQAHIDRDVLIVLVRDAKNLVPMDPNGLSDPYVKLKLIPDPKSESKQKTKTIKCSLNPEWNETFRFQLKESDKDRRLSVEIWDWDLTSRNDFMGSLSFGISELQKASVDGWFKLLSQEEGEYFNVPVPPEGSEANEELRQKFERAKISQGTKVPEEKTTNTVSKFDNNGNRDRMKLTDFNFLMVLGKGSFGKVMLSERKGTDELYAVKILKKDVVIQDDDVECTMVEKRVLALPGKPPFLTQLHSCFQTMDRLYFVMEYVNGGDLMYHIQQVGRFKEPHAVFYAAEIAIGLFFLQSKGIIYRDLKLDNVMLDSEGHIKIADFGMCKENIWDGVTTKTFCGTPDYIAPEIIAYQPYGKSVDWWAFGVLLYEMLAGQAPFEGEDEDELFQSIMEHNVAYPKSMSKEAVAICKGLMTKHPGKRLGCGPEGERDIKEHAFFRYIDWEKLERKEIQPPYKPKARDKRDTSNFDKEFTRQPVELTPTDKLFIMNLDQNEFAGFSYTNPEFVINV
# [10] = target: Protein kinase C alpha type (Homo sapiens) (UniProt P17252); test: Inhibition of Protein kinase C alpha at 10 uM Histone H1 substrate
# [11] = target: T4, CaM kinase II (Homo sapiens); test: as §2; type: protein assay; remark: listed apart in the source
# [12] = target: Protein kinase C gamma type (Homo sapiens) (UniProt P05129); test: Inhibition of Protein Kinase C gamma at 10 uM Histone H1 substrate
# [13] = Inhibition of cAMP-dependent protein kinase at 10 uM Histone H1 substrate
# [14] = target: T1, Tyrosine-protein kinase Lck; test: Inhibition of p56 lck autophosphorylation, gamma-[33P]ATP incorporation
# Target sequence in this assay (P06239 whole entry): as the sequence (P06239 whole entry) above
# [15] = target: T2, Tyrosine-protein kinase SYK; test: Inhibition of p72 syk autophosphorylation
# [16] = target: T3, Tyrosine-protein kinase Blk; test: as §1; remark: listed apart in the source
# [17] = target: Epidermal growth factor receptor (Homo sapiens) (UniProt P00533); conditions: 10 uM
# Description: Inhibition of Epidermal growth factor receptor at 10 uM
Compound,IC50 [1],IC50 [2],IC50 [3],inhibition [4],inhibition [5] [%],inhibition [6] [%],inhibition [7] [%],Cytotoxicity [8],inhibition [9],inhibition [10],inhibition [11],inhibition [12],inhibition [13],IC50 [14] [µM],IC50 [15] [µM],inhibition [16],inhibition [17] [%]
CN1C[C@H](CO)C=C2c3cccc4[nH]cc(c34)C[C@H]21,Not Active,–,–,–,–,–,–,–,–,–,–,–,–,–,–,–,–
CC1=C[C@@H]2c3cccc4[nH]cc(c34)C[C@H]2N(C)C1 [AGROCLAVINE],Not Active,Not Active,Not Active,–,–,–,–,–,–,–,–,–,–,–,–,–,–
COn1cc2c3c(cccc31)[C@@H]1C=C(C)CN(C)[C@@H]1C2,–,–,–,inactive,19,9,42,inactive,inactive,inactive,inactive,inactive,inactive,8.5,285,inactive,14
